Earlier results in patent publication US20180296814A1, “ADMINISTRATION OF DRUGS TO A PATIENT” (Progenity, Inc., priority 2010, published 2018).

Settings: regional absorption in the intestinal tract, rats

- location of maximum absorption: ileum
Substance: salmon calcitonin
